For the data set the following is noted: for aqueous solubility: pH 6.8.

The values that follow come from the Biogen ADME set (Fang et al. 2023).

What is called aqueous solubility is the dissolved amount per volume that the medium holds. A high value points to much dissolved substance.

Values after ≈ are worked out from the molar mass of the structure shown.

As for `COc1ccc(-c2nn(C)c3ccccc23)c(OC)c1OC`, the MDR1-MDCK efflux ratio came to 0.515; the intrinsic clearance, human liver microsomes is 95.4 mL/min/kg; the intrinsic clearance, rat liver microsomes was found to be 1270 mL/min/kg.
With `Cc1cc(Nc2ccc(F)cn2)cc(C2CCN(C(=O)CCc3cccc(Cl)c3)C2)n1` (configuration not stated), the MDR1-MDCK efflux ratio came to 9.81; the intrinsic clearance, human liver microsomes is 562 mL/min/kg; the intrinsic clearance, rat liver microsomes stood at 2270 mL/min/kg.
As to `Cc1nn(-c2ccccn2)c2nc(C3CC3)cc(C(=O)O)c12`, the MDR1-MDCK efflux ratio came out at 2.52; the intrinsic clearance, human liver microsomes amounted to 4.89 mL/min/kg; the intrinsic clearance, rat liver microsomes is ≤ 10.7 mL/min/kg; the aqueous solubility was found to be 51.2 µg/mL (≈ 174 µM).
As for `Cc1nc(-c2ccccc2)c(C(=O)Nc2ccc(Cl)c(Cl)c2)s1`, the MDR1-MDCK efflux ratio worked out at 0.73; the intrinsic clearance, human liver microsomes was determined as 89.2 mL/min/kg; the intrinsic clearance, rat liver microsomes was found to be 2390 mL/min/kg.
In the case of `N#CCCN(C(=O)c1cccs1)C12CC3CC(CC(C3)C1)C2`, the MDR1-MDCK efflux ratio is 0.531; the intrinsic clearance, human liver microsomes was found to be 262 mL/min/kg; the intrinsic clearance, rat liver microsomes was determined as 2310 mL/min/kg; the aqueous solubility was found to be 7.2 µg/mL (≈ 22.9 µM).
As for `CCc1c[nH]c2ncnc(N3CCC(CN4CCN(C)CC4)CC3)c12`, the MDR1-MDCK efflux ratio was found to be 8.23; the fraction unbound, human plasma turned out to be 0.535; the intrinsic clearance, human liver microsomes is ≤ 4.74 mL/min/kg.
As for `O=C(CCCC(=O)N1CCN(c2nsc3ccccc23)CC1)Nc1nccs1`, the MDR1-MDCK efflux ratio was found to be 11.2; the intrinsic clearance, human liver microsomes was 73.7 mL/min/kg; the intrinsic clearance, rat liver microsomes is 512 mL/min/kg.
The like results for `Cc1cccc(OC[C@@]2(O)CN(C[C@]3(O)CC[C@@H](C(C)(C)C)CC3)CC[C@@H]2O)c1` were, in that order, 1.33, 234 mL/min/kg and 1790 mL/min/kg.
With `CCCNC(=O)Nc1ccc(Oc2ncnc3cc(OC)c(OC)cc23)cc1Cl`, the MDR1-MDCK efflux ratio amounted to 6.08 and the aqueous solubility worked out at 0.22 µg/mL (≈ 0.528 µM).
The molecule `Cc1ncsc1-c1nc(CNc2cc(F)cc(F)c2)no1` gave an intrinsic clearance, human liver microsomes of 65.7 mL/min/kg and an intrinsic clearance, rat liver microsomes of 661 mL/min/kg.
As to `CCCC1(CNC(=O)Cn2ccc(=O)cc2)CCC1`, the MDR1-MDCK efflux ratio is 14.3; the intrinsic clearance, human liver microsomes is ≤ 4.74 mL/min/kg; the intrinsic clearance, rat liver microsomes amounted to 14.6 mL/min/kg.
`Cc1cc2c(C(N)=O)cccc2n1-c1nc2c(c(NCc3ccccc3)n1)COCC2` came in with an aqueous solubility of 36.4 µg/mL (≈ 88 µM).
As to `CCCN(C(=O)c1ccccc1N)C(C)C`, the intrinsic clearance, human liver microsomes is ≤ 4.74 mL/min/kg and the intrinsic clearance, rat liver microsomes was 342 mL/min/kg.
With `Cc1cc(NC2CCCC2)nc(C2CCNCC2)n1`, the MDR1-MDCK efflux ratio is 66.7; the intrinsic clearance, human liver microsomes was ≤ 4.74 mL/min/kg; the intrinsic clearance, rat liver microsomes came out at 24.8 mL/min/kg; the aqueous solubility was 71.4 µg/mL (≈ 274 µM).
`O=C(Nc1ccc2ccccc2n1)c1ccc(N2CCOC2=O)cc1`: the MDR1-MDCK efflux ratio came to 0.594; the fraction unbound, human plasma came to 0.0281; the fraction unbound, rat plasma amounted to 0.0117; the intrinsic clearance, human liver microsomes was 5.17 mL/min/kg. This molecule displayed an intrinsic clearance, rat liver microsomes of 45.6 mL/min/kg and an aqueous solubility of 2.85 µg/mL (≈ 8.55 µM).
Consider `O=C1CCCN1c1ccc(S(=O)(=O)Nc2cccc(-c3nnc4n3CCC4)c2)cc1`, for which the MDR1-MDCK efflux ratio was determined as 9.93.
As to `COc1ccc(NS(=O)(=O)c2ccc3c(c2)n(C)c(=O)n3C)cc1`, the aqueous solubility stood at 2.05 µg/mL (≈ 5.9 µM).
On to `c1ccc2nc(OC3CCNCC3)cnc2c1`, for which the intrinsic clearance, human liver microsomes is ≤ 4.74 mL/min/kg and the intrinsic clearance, rat liver microsomes was determined as 183 mL/min/kg.
As for `CN(Cc1ccn(-c2ccccc2)n1)C(=O)c1ccc(O)nc1`, the MDR1-MDCK efflux ratio was 30.8; the intrinsic clearance, human liver microsomes was ≤ 4.74 mL/min/kg; the intrinsic clearance, rat liver microsomes was ≤ 10.7 mL/min/kg; the aqueous solubility stood at 39.6 µg/mL (≈ 128 µM).
On to `Cc1cc(NC(=O)c2c(F)cccc2Cl)no1`, for which the intrinsic clearance, human liver microsomes is ≤ 4.74 mL/min/kg and the intrinsic clearance, rat liver microsomes worked out at 26 mL/min/kg.
For the molecule `O=C(Nc1ccc2c3c(cccc13)CC2)c1ccnc(-n2cncn2)c1`, the MDR1-MDCK efflux ratio was 0.25; the intrinsic clearance, human liver microsomes worked out at 124 mL/min/kg; the intrinsic clearance, rat liver microsomes came out at 164 mL/min/kg; the aqueous solubility was 10.7 µg/mL (≈ 31.4 µM).
The matching figures for `CCN(C(=O)c1cc(NC(C)=O)ccc1F)C1CCCC1`: 14.2, 63 mL/min/kg, 2210 mL/min/kg and 48.8 µg/mL (≈ 167 µM).
The matching figures for `CC(=O)NC1(C(=O)N2CCCN(C3CC3)CC2)CCC(C)CC1` (configuration not stated): 37.7, 27.7 mL/min/kg, 80.8 mL/min/kg and 53.8 µg/mL (≈ 167 µM).
For `COc1cc2c(c(OC)c1OC)CCNC(=O)C2`, the intrinsic clearance, human liver microsomes is ≤ 4.74 mL/min/kg; the intrinsic clearance, rat liver microsomes was ≤ 10.7 mL/min/kg; the aqueous solubility worked out at 49.6 µg/mL (≈ 198 µM).
In the case of `COc1ccccc1NC(=O)CSc1nc(C(C)(C)C)nc2ccccc12`, the MDR1-MDCK efflux ratio came out at 1.26 and the aqueous solubility was found to be 0.27 µg/mL (≈ 0.708 µM).
On to `CN1CCC(=C2c3ccccc3CCc3sccc32)CC1`, for which the MDR1-MDCK efflux ratio came out at 0.862; the intrinsic clearance, human liver microsomes worked out at 15.1 mL/min/kg; the intrinsic clearance, rat liver microsomes worked out at 2130 mL/min/kg.
Take `Cc1ccc(-c2ccnc(O)c2C#N)cc1`: the MDR1-MDCK efflux ratio came out at 0.966; the intrinsic clearance, human liver microsomes was ≤ 4.74 mL/min/kg; the intrinsic clearance, rat liver microsomes was found to be 18.9 mL/min/kg; the aqueous solubility amounted to 11.7 µg/mL (≈ 55.7 µM).
Molecule `Cc1ccc2oc([C@H]3CCN(Cc4ccc(C#N)cc4)C3)nc2c1` showed an intrinsic clearance, human liver microsomes of 41.5 mL/min/kg; an intrinsic clearance, rat liver microsomes of 351 mL/min/kg; an aqueous solubility of 5.4 µg/mL (≈ 17 µM).
Take `CCCN(CCC1=CCCCC1)C(=O)c1cc(C(F)F)n[nH]1`: the MDR1-MDCK efflux ratio came to 0.395; the intrinsic clearance, human liver microsomes came to 65.9 mL/min/kg; the intrinsic clearance, rat liver microsomes stood at 1990 mL/min/kg.
With `CN(C)c1ccnc2sc3c(=O)n(N4CCCCCC4)cnc3c12`, the MDR1-MDCK efflux ratio came out at 3.06; the intrinsic clearance, human liver microsomes turned out to be 8.59 mL/min/kg; the intrinsic clearance, rat liver microsomes turned out to be 90.9 mL/min/kg.
For the molecule `CCCc1cnc(C)nc1N(C)CCC(C)(C)O`, the intrinsic clearance, human liver microsomes was 8.14 mL/min/kg and the intrinsic clearance, rat liver microsomes amounted to 155 mL/min/kg.
As for `O=C(NCc1ccc(CO)c(F)c1)Nc1ccccc1`, the MDR1-MDCK efflux ratio worked out at 0.427; the intrinsic clearance, human liver microsomes is ≤ 4.74 mL/min/kg; the intrinsic clearance, rat liver microsomes was found to be 20.8 mL/min/kg; the aqueous solubility amounted to 35.2 µg/mL (≈ 128 µM).
Take `Cn1cnc2ncn(Cc3nc(CCc4ccc(Cl)cc4)no3)c(=O)c21`: the MDR1-MDCK efflux ratio stood at 15.7; the intrinsic clearance, human liver microsomes was found to be 18 mL/min/kg; the intrinsic clearance, rat liver microsomes is 214 mL/min/kg.
The matching figures for `CCn1ncc(CN(C)C(=O)c2ccc(-c3nc(C)cc(C)n3)cc2)c1C`: 4.16, 19.3 mL/min/kg and 278 mL/min/kg.
Consider `Cc1cc(C(=O)N2CCN(C(=O)C3CCC3)CC2)c(O)cn1`, for which the MDR1-MDCK efflux ratio is 29.1; the intrinsic clearance, human liver microsomes is ≤ 4.74 mL/min/kg; the intrinsic clearance, rat liver microsomes was ≤ 10.7 mL/min/kg.
Take `Cc1nn(Cc2csc(-c3cccs3)n2)c(N)c1C#N`: the MDR1-MDCK efflux ratio is 0.689; the intrinsic clearance, human liver microsomes worked out at 19.2 mL/min/kg; the intrinsic clearance, rat liver microsomes turned out to be 388 mL/min/kg; the aqueous solubility is 39.6 µg/mL (≈ 131 µM).
`CC(C)NS(=O)(=O)c1ccc2c(c1)oc(=O)c1cc(S(=O)(=O)NC(C)C)ccc12` displayed an aqueous solubility of 0.47 µg/mL (≈ 1.07 µM).
`O=C(NCc1cccc2c1OCCCO2)c1cscn1` yielded an intrinsic clearance, human liver microsomes of 7.67 mL/min/kg and an intrinsic clearance, rat liver microsomes of 82.9 mL/min/kg.
As for `CONC(=O)c1ccccc1Nc1cc(Nc2cc(C)nn2C(C)C)ncc1Cl`, the intrinsic clearance, human liver microsomes came to 66.2 mL/min/kg; the intrinsic clearance, rat liver microsomes is 262 mL/min/kg; the aqueous solubility is 24.2 µg/mL (≈ 58.4 µM).
As to `COc1ccc(CNc2c(-c3ccc(OC)c(OC)c3)nc3cnccn23)cc1`, the MDR1-MDCK efflux ratio was determined as 2.42; the intrinsic clearance, human liver microsomes amounted to 675 mL/min/kg; the intrinsic clearance, rat liver microsomes turned out to be 1950 mL/min/kg; the aqueous solubility came to 46.9 µg/mL (≈ 120 µM).
Take `Cc1cccc(C)c1OCC(=O)N(C)C1(C#N)CCC1`: the MDR1-MDCK efflux ratio turned out to be 0.621; the intrinsic clearance, human liver microsomes came to 13.3 mL/min/kg; the intrinsic clearance, rat liver microsomes was found to be 472 mL/min/kg; the aqueous solubility was 56.1 µg/mL (≈ 206 µM).
Take `CCCN(C)C(=O)Nc1cccc(-c2nnc3n2CCCCC3)c1`: the MDR1-MDCK efflux ratio is 92.4; the intrinsic clearance, human liver microsomes is ≤ 4.74 mL/min/kg; the intrinsic clearance, rat liver microsomes was 44.5 mL/min/kg; the aqueous solubility worked out at 39.4 µg/mL (≈ 120 µM).
The like results for `c1ccc(-c2n[nH]c(C3CCN(c4ccccn4)CC3)n2)cc1` were, in that order, 0.974, 15.8 mL/min/kg, 440 mL/min/kg and 34.4 µg/mL (≈ 113 µM).
`Cc1cc(CSCc2ccc(C#N)cc2)no1` displayed an intrinsic clearance, human liver microsomes of 76.4 mL/min/kg and an intrinsic clearance, rat liver microsomes of 1010 mL/min/kg.
As to `CCc1cc(-c2ccc(OC)c3nc(C)ccc23)nc(N2CCOCC2)n1`, the MDR1-MDCK efflux ratio was 1.12; the intrinsic clearance, human liver microsomes was determined as 6.38 mL/min/kg; the intrinsic clearance, rat liver microsomes came to 105 mL/min/kg.
Consider `CN1CCC[C@@H]1CCO[C@](C)(c1ccccc1)c1ccc(Cl)cc1`, for which the intrinsic clearance, human liver microsomes was 24.8 mL/min/kg; the intrinsic clearance, rat liver microsomes was 1090 mL/min/kg; the aqueous solubility was found to be 98.7 µg/mL (≈ 287 µM).
Turning to `CN(CC(=O)Nc1cc(F)cc(F)c1)c1ccnc(C(N)=O)c1`, the MDR1-MDCK efflux ratio turned out to be 12.3; the intrinsic clearance, human liver microsomes was ≤ 4.74 mL/min/kg; the intrinsic clearance, rat liver microsomes turned out to be 42.6 mL/min/kg; the aqueous solubility was found to be 45.9 µg/mL (≈ 143 µM).
As for `Oc1cccc(/C=C/c2nc3ccccc3o2)c1`, the MDR1-MDCK efflux ratio is 0.192 and the aqueous solubility came to 0.7 µg/mL (≈ 2.95 µM).
In turn, `CCONC(=O)Cc1coc2c(C)c(C)ccc12` returned an intrinsic clearance, human liver microsomes of 89.7 mL/min/kg; an intrinsic clearance, rat liver microsomes of 1060 mL/min/kg; an aqueous solubility of 34.2 µg/mL (≈ 138 µM).
